IC50 data for 25 compounds are collected here from patent US20250282794A1 (CURADEV PHARMA LTD, priority 2022, published 2025).

A value given as a limit tells only on which side of the number the result lay.

This assay addresses recombinant full length HPK-1 enzyme (Homo sapiens (Human), UniProt Q92918). The assay is described as follows: HPK-1 biochemical enzyme assay (ADP-Glo kinase inhibition). Conditions: recombinant full length HPK-1 6.8 nM, 10 μM ATP, 12.5 μM MBP, 30 mins at 25° C. An outline of the steps: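 Recombinant full-length human HPK-1 (6.8 nM) incubated 30 min at 25° C. with 10 μM ATP and 12.5 μM swine MBP in 40 mM Tris pH 7.4, 20 mM MgCl2, 50 μM DTT, 0.1 mg/mL BSA. ADP measured by ADP-Glo; IC50 from 10 concentrations, normalized to no-enzyme and vehicle controls.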

Chain of recombinant full length HPK-1 enzyme (Q92918 whole entry, species assumed): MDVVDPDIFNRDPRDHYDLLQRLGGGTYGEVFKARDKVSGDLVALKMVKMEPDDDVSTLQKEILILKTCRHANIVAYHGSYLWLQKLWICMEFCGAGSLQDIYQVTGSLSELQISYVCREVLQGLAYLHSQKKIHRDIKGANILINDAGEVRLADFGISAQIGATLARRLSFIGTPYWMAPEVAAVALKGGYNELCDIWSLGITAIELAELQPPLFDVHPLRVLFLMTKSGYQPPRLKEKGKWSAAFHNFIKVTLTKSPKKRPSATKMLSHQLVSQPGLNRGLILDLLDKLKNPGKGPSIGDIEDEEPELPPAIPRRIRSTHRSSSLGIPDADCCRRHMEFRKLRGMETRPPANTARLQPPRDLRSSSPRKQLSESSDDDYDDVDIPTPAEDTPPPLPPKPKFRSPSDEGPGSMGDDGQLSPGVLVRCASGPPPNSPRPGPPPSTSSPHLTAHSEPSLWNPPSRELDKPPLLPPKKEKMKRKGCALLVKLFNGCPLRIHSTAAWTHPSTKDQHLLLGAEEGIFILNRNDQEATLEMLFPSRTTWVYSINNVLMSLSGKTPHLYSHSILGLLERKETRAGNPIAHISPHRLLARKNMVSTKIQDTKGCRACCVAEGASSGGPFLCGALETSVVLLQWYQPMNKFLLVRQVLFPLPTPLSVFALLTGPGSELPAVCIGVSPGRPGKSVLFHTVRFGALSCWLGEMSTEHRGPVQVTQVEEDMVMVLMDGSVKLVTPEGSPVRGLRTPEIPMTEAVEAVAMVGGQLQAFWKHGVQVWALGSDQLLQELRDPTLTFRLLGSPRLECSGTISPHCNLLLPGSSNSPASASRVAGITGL

Take `Cc1c(Nc2cc[nH]c(=O)c2C(=O)Nc2ccc3c(c2)OCC2CN(C)CCN32)cnc2c1NCCO2` (stereo not shown) [Example 168, N-(3-Methyl-1,2,3,4,4a,5-hexahydrobenzo[b]pyrazino[1,2-d][1,4]oxazin-8-yl)-4-((8-methyl-2,3-dihydro-1H-pyrido[2,3-b][1,4]oxazin-7-yl)amino)-2-oxo-1,2-dihydropyridine-3-carboxamide]: the IC50 was at most 10 nM.

Take `Cc1c(Nc2cc[nH]c(=O)c2C(=O)Nc2ccc(N3CCN(C)CC3)cc2)cnc2c1NCC(C)O2` (stereo not shown) [Example 125, 4-((3,8-dimethyl-2,3-dihydro-1H-pyrido[2,3-b][1,4]oxazin-7-yl)amino)-N-(4-(4-methylpiperazin-1-yl)phenyl)-2-oxo-1,2-dihydropyridine-3-carboxamide]: the IC50 was in the range of 10 to 100 nM.

Turning to `Cc1c(Nc2cc[nH]c(=O)c2C(=O)Nc2ccc(N3CCN(C)CC3)cc2)cnc2c1NCC1(CC1)O2` [Example 190, 4-((8′-methyl-1′,2′-dihydrospiro[cyclopropane-1,3′-pyrido[2,3-b][1,4]oxazin]-7′-yl)amino)-N-(4-(4-methylpiperazin-1-yl)phenyl)-2-oxo-1,2-dihydropyridine-3-carboxamide], the concentration for half-maximal inhibition (IC50) lay in the range of 10 to 100 nM. To `Cc1c(Nc2cc[nH]c(=O)c2C(=O)Nc2ccc(N3CCN(C)CC3)c(F)c2)cnc2c1NCC(C)O2` (stereo not shown) [Example 360, 4-((3,8-dimethyl-2,3-dihydro-1H-pyrido[2,3-b][1,4]oxazin-7-yl)amino)-N-(3-fluoro-4-(4-methylpiperazin-1-yl)phenyl)-2-oxo-1,2-dihydropyridine-3-carboxamide] belongs 10 to 100 nM; to `Cc1c(Nc2cc[nH]c(=O)c2C(=O)Nc2ccc(N3CCN(c4ccncc4)CC3)cc2)cnc2c1NCCO2` [Example 288, 4-((8-methyl-2,3-dihydro-1H-pyrido[2,3-b][1,4]oxazin-7-yl)amino)-2-oxo-N-(4-(4-(pyridin-4-yl)piperazin-1-yl)phenyl)-1,2-dihydropyridine-3-carboxamide], at most 10 nM. The result for `Cc1c(Nc2cc[nH]c(=O)c2C(=O)Nc2ccc(N3CCN(C)CC3)c(N)c2)cnc2c1NCC(C)O2` (stereo not shown) [Example 294, N-(3-amino-4-(4-methylpiperazin-1-yl)phenyl)-4-((3,8-dimethyl-2,3-dihydro-1H-pyrido[2,3-b][1,4]oxazin-7-yl)amino)-2-oxo-1,2-dihydropyridine-3-carboxamide] reads at most 10 nM. The result for `Cc1c(Nc2nc[nH]c(=O)c2C(=O)Nc2ccc(N3CCN(C(C)C)CC3)cc2)cnc2c1NCCO2` [Example 412, N-(4-(4-isopropylpiperazin-1-yl)phenyl)-4-((8-methyl-2,3-dihydro-1H-pyrido[2,3-b][1,4]oxazin-7-yl)amino)-6-oxo-1,6-dihydropyrimidine-5-carboxamide] reads 10 to 100 nM. Turning to `Cc1c(Nc2cc[nH]c(=O)c2C(=O)Nc2ccc(N3CCN(C(=O)CCO)CC3)cc2)cnc2c1NCCO2` [Example 403, N-(4-(4-(3-hydroxypropanoyl)piperazin-1-yl)phenyl)-4-((8-methyl-2,3-dihydro-1H-pyrido[2,3-b][1,4]oxazin-7-yl)amino)-2-oxo-1,2-dihydropyridine-3-carboxamide], the IC50 is at most 10 nM. Turning to `Cc1c(Nc2cc[nH]c(=O)c2C(=O)Nc2ccc3c(c2)CCCN3)cnc2c1NCCO2` [Example 254, 4-((8-methyl-2,3-dihydro-1H-pyrido[2,3-b][1,4]oxazin-7-yl)amino)-2-oxo-N-(1,2,3,4-tetrahydroquinolin-6-yl)-1,2-dihydropyridine-3-carboxamide], the IC50 is 10 to 100 nM. Take `Cc1c(Nc2cc[nH]c(=O)c2C(=O)Nc2ccc(N3CCC4(CC3)CC4)cc2)cnc2c1NCCO2` [Example 382, N-(4-(6-azaspiro[2.5]octan-6-yl)phenyl)-4-((8-methyl-2,3-dihydro-1H-pyrido[2,3-b][1,4]oxazin-7-yl)amino)-2-oxo-1,2-dihydropyridine-3-carboxamide]: the IC50 is 10 to 100 nM. Take `Cc1c(Nc2cc[nH]c(=O)c2C(=O)Nc2ccc(N3CCN(C)CC3)cc2)cnc2c1NC(=O)CO2` [Example 126, 4-((8-methyl-2-oxo-2,3-dihydro-1H-pyrido[2,3-b][1,4]oxazin-7-yl)amino)-N-(4-(4-methylpiperazin-1-yl)phenyl)-2-oxo-1,2-dihydropyridine-3-carboxamide]: the IC50 fell in the range of 10 to 100 nM. To `CC(=O)N1CCN(c2ccc(NC(=O)c3c(Nc4cnc5c(c4C)NCCO5)cc[nH]c3=O)cc2)CC1` [Example 402, N-(4-(4-acetylpiperazin-1-yl)phenyl)-4-((8-methyl-2,3-dihydro-1H-pyrido[2,3-b][1,4]oxazin-7-yl)amino)-2-oxo-1,2-dihydropyridine-3-carboxamide] belongs 10 to 100 nM.

With `Cc1c(Nc2cc[nH]c(=O)c2C(=O)Nc2ccc(N3CCN(C(=O)C(C)(C)C)CC3)cc2)cnc2c1NCCO2` [Example 341, 4-((8-methyl-2,3-dihydro-1H-pyrido[2,3-b][1,4]oxazin-7-yl)amino)-2-oxo-N-(4-(4-pivaloylpiperazin-1-yl)phenyl)-1,2-dihydropyridine-3-carboxamide], the IC50 is at most 10 nM. Turning to `Cc1c(Nc2cc[nH]c(=O)c2C(=O)Nc2ccc3c(c2)N(C)C(=O)CO3)cnc2c1NCCO2` [Example 239, 4-((8-methyl-2,3-dihydro-1H-pyrido[2,3-b][1,4]oxazin-7-yl)amino)-N-(4-methyl-3-oxo-3,4-dihydro-2H-benzo[b][1,4]oxazin-6-yl)-2-oxo-1,2-dihydropyridine-3-carboxamide], the IC50 fell in the range of 100 to 1000 nM. Consider `Cc1c(Nc2cc[nH]c(=O)c2C(=O)Nc2ccc(N3CC4CCC(C3)N4C)cc2)cnc2c1NCCO2` [Example 162, 4-((8-methyl-2,3-dihydro-1H-pyrido[2,3-b][1,4]oxazin-7-yl)amino)-N-(4-(8-methyl-3,8-diazabicyclo[3.2.1]octan-3-yl)phenyl)-2-oxo-1,2-dihydropyridine-3-carboxamide], for which the IC50 is at most 10 nM.

As to `Cc1cc(NC(=O)c2c(Nc3cnc4c(c3C)NCCO4)cc[nH]c2=O)ccc1N1CCN(C2CC2)CC1` [Example 400, N-(4-(4-cyclopropylpiperazin-1-yl)-3-methylphenyl)-4-((8-methyl-2,3-dihydro-1H-pyrido[2,3-b][1,4]oxazin-7-yl)amino)-2-oxo-1,2-dihydropyridine-3-carboxamide], the IC50 was 10 to 100 nM.

For `Cc1c(Nc2cc[nH]c(=O)c2C(=O)Nc2ccc(N3CCN(C)CC3)c(N(C)C)c2)cnc2c1NCCO2` [Example 291, N-(3-(dimethylamino)-4-(4-methylpiperazin-1-yl)phenyl)-4-((8-methyl-2,3-dihydro-1H-pyrido[2,3-b][1,4]oxazin-7-yl)amino)-2-oxo-1,2-dihydropyridine-3-carboxamide], the IC50 was 10 to 100 nM. To `COCc1cc(N2CCN(c3ccc(NC(=O)c4c(Nc5cnc6c(c5C)NCCO6)cc[nH]c4=O)cc3)CC2)ccn1` [Example 364, N-(4-(4-(2-(methoxymethyl)pyridin-4-yl)piperazin-1-yl)phenyl)-4-((8-methyl-2,3-dihydro-1H-pyrido[2,3-b][1,4]oxazin-7-yl)amino)-2-oxo-1,2-dihydropyridine-3-carboxamide] belongs 10 to 100 nM. In the case of `Cc1c(Nc2cc[nH]c(=O)c2C(=O)Nc2ccc(N3CCOCC3)cc2)cnc2c1NCCO2` [Example 205, 4-((8-methyl-2,3-dihydro-1H-pyrido[2,3-b][1,4]oxazin-7-yl)amino)-N-(4-morpholinophenyl)-2-oxo-1,2-dihydropyridine-3-carboxamide], the IC50 lay within 10 to 100 nM.

In the case of `COc1ccc(Oc2ccc(NC(=O)c3c(Nc4cnc5c(c4C)NCCO5)cc[nH]c3=O)cc2)cc1` [Example 253, N-(4-(4-methoxyphenoxy)phenyl)-4-((8-methyl-2,3-dihydro-1H-pyrido[2,3-b][1,4]oxazin-7-yl)amino)-2-oxo-1,2-dihydropyridine-3-carboxamide], the IC50 fell in the range of 100 to 1000 nM. For `Cc1c(Nc2cc[nH]c(=O)c2C(=O)Nc2ccc(N3CCN(C)CC3)cc2)cnc2c1NCC(C(C)C)O2` (stereo not shown) [Example 189, 4-((3-isopropyl-8-methyl-2,3-dihydro-1H-pyrido[2,3-b][1,4]oxazin-7-yl)amino)-N-(4-(4-methylpiperazin-1-yl)phenyl)-2-oxo-1,2-dihydropyridine-3-carboxamide], the IC50 was 10 to 100 nM. The result for `Cc1c(Nc2cc[nH]c(=O)c2C(=O)Nc2ccc(N3CCN(CCCO)CC3)cc2)cnc2c1NCCO2` [Example 175, N-(4-(4-(3-hydroxypropyl)piperazin-1-yl)phenyl)-4-((8-methyl-2,3-dihydro-1H-pyrido[2,3-b][1,4]oxazin-7-yl)amino)-2-oxo-1,2-dihydropyridine-3-carboxamide] reads at most 10 nM; that for `Cc1c(Nc2cc[nH]c(=O)c2C(=O)Nc2ccc3c(c2)NCCC3)cnc2c1NCCO2` [Example 246, 4-((8-methyl-2,3-dihydro-1H-pyrido[2,3-b][1,4]oxazin-7-yl)amino)-2-oxo-N-(1,2,3,4-tetrahydroquinolin-7-yl)-1,2-dihydropyridine-3-carboxamide], 10 to 100 nM. The result for `Cc1c(Nc2cc[nH]c(=O)c2C(=O)Nc2ccc(N3CCN4C(=O)N(C)CC4C3)cc2)cnc2c1NCCO2` (stereo not shown) [Example 377, 4-((8-methyl-2,3-dihydro-1H-pyrido[2,3-b][1,4]oxazin-7-yl)amino)-N-(4-(2-methyl-3-oxohexahydroimidazo[1,5-a]pyrazin-7(1H)-yl)phenyl)-2-oxo-1,2-dihydropyridine-3-carboxamide] reads at most 10 nM.

Consider `COCCN1CCN(c2ccc(NC(=O)c3c(Nc4cnc5c(c4C)NCC(C)O5)cc[nH]c3=O)cc2)CC1` (stereo not shown) [Example 171, 4-((3,8-dimethyl-2,3-dihydro-1H-pyrido[2,3-b][1,4]oxazin-7-yl)amino)-N-(4-(4-(2-methoxyethyl)piperazin-1-yl)phenyl)-2-oxo-1,2-dihydropyridine-3-carboxamide], for which the IC50 was at most 10 nM.

The IC50 is the point on the concentration scale where inhibition reaches its midpoint.
